What was measured:
Type in all cases: functional, cell-based
[1] = tested on: HeLa; test: Cytotoxicity against human HeLa cells at 100 uM after 48 hrs by MTT assay
[2] = tested on: 786-0; test: Cytotoxicity against human 7860 cells after 48 hrs by MTT assay
[3] = tested on: HeLa; test: Cytotoxicity against human HeLa cells at 125 uM after 48 hrs by MTT assay

SMILES	IC50 [1]	IC50 ([2]; Homo sapiens, 786-0, 48 h)	IC50 ([2]; 786-0)	IC50 [3]
CCCCCCCCCCCCCCCCCCO[PH](=O)OC[C@H]1O[C@@H](n2cc(C)c(=O)[nH]c2=O)C[C@@H]1N=[N+]=[N-] (stereo not given in full)	> 100 µM	86 µM		
Cc1cn([C@H]2C[C@H](N=[N+]=[N-])[C@@H](COP(=O)(NCCNCCNC(=O)CCC(C)[C@H]3CC[C@H]4[C@@H]5[C@H](O)C[C@@H]6C[C@H](O)CC[C@]6(C)[C@H]5C[C@H](O)[C@]34C)OC[C@H]3O[C@@H](n4cc(C)c(=O)[nH]c4=O)C[C@@H]3N=[N+]=[N-])O2)c(=O)[nH]c1=O (stereo not given in full)	> 100 µM	> 100 µM		
CCCCCCCCCCCCCCCCCCOP(=O)(NCCNCCNC(=O)CCC(C)[C@H]1CC[C@H]2[C@@H]3CC[C@@H]4C[C@H](O)CC[C@]4(C)[C@H]3C[C@H](O)[C@]12C)OC[C@H]1O[C@@H](n2cc(C)c(=O)[nH]c2=O)C[C@@H]1N=[N+]=[N-] (stereo not given in full)	> 100 µM	58 µM		
Cc1cn([C@H]2C[C@H](N=[N+]=[N-])[C@@H](COP(=O)(NCCNCCNC(=O)CCC(C)[C@H]3CC[C@H]4[C@@H]5C(=O)C[C@@H]6CC(=O)CC[C@]6(C)[C@H]5CC(=O)[C@]34C)OC[C@H]3O[C@@H](n4cc(C)c(=O)[nH]c4=O)C[C@@H]3N=[N+]=[N-])O2)c(=O)[nH]c1=O (stereo not given in full)	> 100 µM	> 100 µM		
Cc1cn([C@H]2C[C@H](N=[N+]=[N-])[C@@H](COP(=O)(NCCCNCCCNC(=O)CCC(C)[C@H]3CC[C@H]4[C@@H]5CC[C@@H]6C[C@H](O)CC[C@]6(C)[C@H]5C[C@H](O)[C@]34C)OC[C@H]3O[C@@H](n4cc(C)c(=O)[nH]c4=O)C[C@@H]3N=[N+]=[N-])O2)c(=O)[nH]c1=O (stereo not given in full)	> 100 µM	> 100 µM		
CCCCCCCCCCCCCCCCCCOP(=O)(NCCCNCCCNC(=O)CCC(C)[C@H]1CC[C@H]2[C@@H]3[C@H](O)C[C@@H]4C[C@H](O)CC[C@]4(C)[C@H]3C[C@H](O)[C@]12C)OC[C@H]1O[C@@H](n2cc(C)c(=O)[nH]c2=O)C[C@@H]1N=[N+]=[N-] (stereo not given in full)	94 µM	7.2 µM		
CCCCCCCCCCCCCCCCCCOP(=O)(NCCCNCCCNC(=O)CCC(C)[C@H]1CC[C@H]2[C@@H]3C(=O)C[C@@H]4CC(=O)CC[C@]4(C)[C@H]3CC(=O)[C@]12C)OC[C@H]1O[C@@H](n2cc(C)c(=O)[nH]c2=O)C[C@@H]1N=[N+]=[N-] (stereo not given in full)	91 µM	7.1 µM		
CCCCCCCCCCCCCCCCCCOP(=O)(NCCNCCNC(=O)CCC(C)[C@H]1CC[C@H]2[C@@H]3C(=O)C[C@@H]4CC(=O)CC[C@]4(C)[C@H]3CC(=O)[C@]12C)OC[C@H]1O[C@@H](n2cc(C)c(=O)[nH]c2=O)C[C@@H]1N=[N+]=[N-] (stereo not given in full)	> 100 µM	42 µM		
Cc1cn([C@H]2C[C@H](N=[N+]=[N-])[C@@H](COP(=O)(NCCCNCCCNC(=O)CCC(C)[C@H]3CC[C@H]4[C@@H]5C(=O)C[C@@H]6CC(=O)CC[C@]6(C)[C@H]5CC(=O)[C@]34C)OC[C@H]3O[C@@H](n4cc(C)c(=O)[nH]c4=O)C[C@@H]3N=[N+]=[N-])O2)c(=O)[nH]c1=O (stereo not given in full)	> 100 µM	> 100 µM		
Cc1cn([C@H]2C[C@H](N=[N+]=[N-])[C@@H](COP(=O)(NCCNCCNC(=O)CCC(C)[C@H]3CC[C@H]4[C@@H]5CC[C@@H]6C[C@H](O)CC[C@]6(C)[C@H]5C[C@H](O)[C@]34C)OC[C@H]3O[C@@H](n4cc(C)c(=O)[nH]c4=O)C[C@@H]3N=[N+]=[N-])O2)c(=O)[nH]c1=O (stereo not given in full)	> 100 µM	> 100 µM		
CCCCCCCCCCCCCCCCCCOP(=O)(NCCCNCCCNC(=O)CCC(C)[C@H]1CC[C@H]2[C@@H]3CC[C@@H]4C[C@H](O)CC[C@]4(C)[C@H]3C[C@H](O)[C@]12C)OC[C@H]1O[C@@H](n2cc(C)c(=O)[nH]c2=O)C[C@@H]1N=[N+]=[N-] (stereo not given in full)	89 µM	6.8 µM		
CCCCCCCCCCCCCCCCCCOP(=O)(NCCNCCNC(=O)CCC(C)[C@H]1CC[C@H]2[C@@H]3[C@H](O)C[C@@H]4C[C@H](O)CC[C@]4(C)[C@H]3C[C@H](O)[C@]12C)OC[C@H]1O[C@@H](n2cc(C)c(=O)[nH]c2=O)C[C@@H]1N=[N+]=[N-] (stereo in doubt; 2a)			59 µM	
Cc1cn([C@H]2C[C@H](N=[N+]=[N-])[C@@H](CO)O2)c(=O)[nH]c1=O [ZIDOVUDINE]	> 100 µM			> 100 µM

Source: ChEMBL document CHEMBL1147963, “Design, synthesis, and antitumor activity of bile acid-polyamine-nucleoside conjugates” (Bioorg Med Chem Lett, 2007)
